Test results published in patent publication US11279733B2, “Peptide antibiotics” (priority 2017, dated 2022).
≈ marks a conversion by molar mass, not a printed value. Like-named read-outs stand apart in the source and are kept apart here. Positions of bridges follow the written chain, without caps; N, C: chain ends. Non-standard residues stand in square brackets, D forms with d. Residues, ends and D or L forms follow the SMILES beside them. *: point of attachment. Decanoyl(3R-OH) = CCCCCCC[C@@H](O)CC(=O)*; 2Nal = N[C@@H](Cc1ccc2ccccc2c1)C(=O)O; dIgl = N[C@@H](C(=O)O)C1Cc2ccccc2C1; X4 = CCCCCOc1ccc(C(=O)*)cc1; dDab = NCC[C@@H](N)C(=O)O; Octanoyl = CCCCCCCC(=O)*; Orn = NCCC[C@H](N)C(=O)O; Dab = NCC[C@H](N)C(=O)O

What was measured:
A. baumannii ATCC 19606 = details: ATCC 19606
Summary of the method: (§1)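 Mid-log cultures grown in Mueller Hinton broth at 37° C were tested by 2-fold broth microdilution at 5×10^5 CFU/mL final. Compounds were dissolved in water and tested over a final range of 32 to 0.015 μg/mL.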

[1] = system: S. aureus ATCC 25923, MSSA; details: ATCC 25923
Summary of the method: as §1

K. pneumoniae ATCC 13883 = details: ATCC 13883
Summary of the method: as §1

P. aeruginosa ATCC 27853 = details: ATCC 27853
Summary of the method: as §1

[2] = system: P. aeruginosa GN_105, PmxR; details: GN 105, PmxR
Summary of the method: as §1

[3] = system: P. aeruginosa GN_043, PmxR
Summary of the method: as §1

[4] = system: K. pneumoniae GN_102 PmxR; details: GN 102 PmxR
Summary of the method: as §1

E. coli ATCC 25922 = details: ATCC 25922
Summary of the method: as §1

A. baumannii GN_093 PmxR = details: GN 093 PmxR
Summary of the method: as §1

[5] = system: K. pneumoniae ATCC BAA-2146, NDM-1 pos; details: ATCC BAA-2146
Summary of the method: as §1

[6] = system: K. pneumoniae ATCC 700603, MDR; details: ATCC 700603
Summary of the method: as §1

[7] = system: K. pneumoniae GN_106, PmxR; details: GN 106, PmxR
Summary of the method: as §1

in vitro = details: human
Summary of the method: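 4000 cells/well, 24 h attach (37 °C, 5% CO2); compound 24 h; 5 μM resazurin 2 h, 37 °C; fluorescence ex/em 560/590. CC50 by curve fit.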

Compound | MIC A. baumannii ATCC 19606 (A. baumannii ATCC 19606) | MIC S. aureus ATCC 25923, MSSA [1] | MIC K. pneumoniae ATCC 13883 (K. pneumoniae ATCC 13883) | MIC P. aeruginosa ATCC 27853 (P. aeruginosa ATCC 27853) | MIC P. aeruginosa GN_105, PmxR [2] | MIC P. aeruginosa GN_043, PmxR ([3]; polymyxin-resistant) | MIC K. pneumoniae GN_102 PmxR [4] | MIC E. coli ATCC 25922 (E. coli ATCC 25922) | MIC A. baumannii GN_093 PmxR (A. baumannii GN_093 PmxR) | MIC K. pneumoniae ATCC BAA-2146, NDM-1 pos [5] | MIC K. pneumoniae ATCC 700603, MDR [6] | MIC K. pneumoniae GN_106, PmxR [7] | CC50 at 24 h (in vitro) | also measured
CCCCCCCC(=O)N[C@H](CCN)C(=O)N[C@H]1CCNC(=O)[C@H](Cc2c[nH]c3ccccc23)NC(=O)[C@H](CCN)NC(=O)[C@H](CCN)NC(=O)[C@H](CC(C)C)NC(=O)[C@@H](C2Cc3ccccc3C2)NC(=O)[C@H](CCN)NC1=O [compound 8900, nC7CO-D-Dab-cyc[L-Dab-L-Dab-D-indanylgly-L-Leu-L-Dab-L-Dab-L-Trp]] (Octanoyl-[dDab][Dab][Dab][dIgl]L[Dab][Dab]W; lactam 2-C) | 32 µg/mL (≈ 29.1 µM) | 8 µg/mL (≈ 7.28 µM) | 16 µg/mL (≈ 14.6 µM) | 4 µg/mL (≈ 3.64 µM) | 8 µg/mL (≈ 7.28 µM) | 4 µg/mL (≈ 3.64 µM) | 16 µg/mL (≈ 14.6 µM) | 4 µg/mL (≈ 3.64 µM) | >32 µg/mL | 8 µg/mL (≈ 7.28 µM) | 8 µg/mL (≈ 7.28 µM) | 16 µg/mL (≈ 14.6 µM) | 115 µM | –
CCCCCCC[C@@H](O)CC(=O)N[C@H](CCN)C(=O)N[C@H]1CCNC(=O)[C@H](CC(C)C)NC(=O)[C@H](CCN)NC(=O)[C@H](CCN)NC(=O)[C@H](CC(C)C)NC(=O)[C@@H](Cc2ccccc2)NC(=O)[C@H](CCCN)NC1=O [compound 994, 3(R)OH-nC9CO-D-Dab-cyc[L-Dab-L-Orn-D-Phe-L-Leu-L-Dab-L-Dab-L-Leu]] ({Decanoyl(3R-OH)}-[dDab][Dab][Orn][dF]L[Dab][Dab]L; lactam 2-C) | – | – | – | – | – | – | – | – | – | – | – | – | > 300 µM | MIC, A. baumannii ATCC 19606 (A. baumannii ATCC 19606): 32 µg/mL (≈ 30.2 µM); MIC, S. Aureus ATCC 25923, MSSA [1]: 32 µg/mL (≈ 30.2 µM); MIC, K. pneumoniae ATCC 13883 (K. pneumoniae ATCC 13883): 4 µg/mL (≈ 3.78 µM); MIC, P. aeruginosa ATCC 27853 (P. aeruginosa ATCC 27853): 2 µg/mL (≈ 1.89 µM); MIC, P. aeruginosa PA9704, PmxR [2]: 8 µg/mL (≈ 7.56 µM); MIC, P. aeruginosa FADDI-PA070, PmxR ([3]; Table 5, polymyxin-resistant): >32 µg/mL; MIC, K. pneumoniae Cl Koprana 10065 0661:1, PmxR [4]: 4 µg/mL (≈ 3.78 µM); MIC, E. coli ATCC 25922 (E. coli ATCC 25922): 8 µg/mL (≈ 7.56 µM); MIC, A. baumannii Cl Ptyela 10073 4512:2, PmxR (A. baumannii GN_093 PmxR): 32 µg/mL (≈ 30.2 µM); MIC, K. pneumoniae ATCC BAA-2146, NDM-1 pos [5]: 8 µg/mL (≈ 7.56 µM); MIC, K. pneumoniae ATCC 700603, MDR [6]: 8 µg/mL (≈ 7.56 µM); MIC, K. pneumoniae Cl 138-16347-20362, PmxR [7]: 4 µg/mL (≈ 3.78 µM)
CCCCCCC[C@@H](O)CC(=O)N[C@H](CCN)C(=O)N[C@H]1CCNC(=O)[C@H](Cc2c[nH]c3ccccc23)NC(=O)[C@H](CCN)NC(=O)[C@H](CCN)NC(=O)[C@H](Cc2ccc3ccccc3c2)NC(=O)[C@@H](Cc2ccccc2)NC(=O)[C@H](CCN)NC1=O [compound 8832, nC10-3(R)OH-D-Dab-cyc[L-Dab-L-Dab-D-Phe-L-2-NaphthylAla-L-Dab-L-Dab-L-Trp]] ({Decanoyl(3R-OH)}-[dDab][Dab][Dab][dF][2Nal][Dab][Dab]W; lactam 2-C) | 8 µg/mL (≈ 6.66 µM) | 4 µg/mL (≈ 3.33 µM) | 16 µg/mL (≈ 13.3 µM) | 4 µg/mL (≈ 3.33 µM) | 8 µg/mL (≈ 6.66 µM) | 4 µg/mL (≈ 3.33 µM) | 16 µg/mL (≈ 13.3 µM) | 8 µg/mL (≈ 6.66 µM) | 16 µg/mL (≈ 13.3 µM) | 8 µg/mL (≈ 6.66 µM) | 8 µg/mL (≈ 6.66 µM) | 8 µg/mL (≈ 6.66 µM) | 26 µM | –
CCCCCOc1ccc(C(=O)N[C@H](CCN)C(=O)N[C@H]2CCNC(=O)[C@H](CC(C)C)NC(=O)[C@H](CCN)NC(=O)[C@H](CCN)NC(=O)[C@H](Cc3ccccc3)NC(=O)[C@@H](CC(C)C)NC(=O)[C@H](CCN)NC2=O)cc1 [compound 6520, 4-(pentyloxy)benzoic acid-D-Dab-cyc[L-Dab-L-Dab-D-Leu-L-Phe-L-Dab-L-Dab-L-Leu]] (X4-[dDab][Dab][Dab][dL]F[Dab][Dab]L; lactam 2-C) | >32 µg/mL | 32 µg/mL (≈ 30.1 µM) | 32 µg/mL (≈ 30.1 µM) | 4 µg/mL (≈ 3.76 µM) | 4 µg/mL (≈ 3.76 µM) | – | 32 µg/mL (≈ 30.1 µM) | 2 µg/mL (≈ 1.88 µM) | 32 µg/mL (≈ 30.1 µM) | 8 µg/mL (≈ 7.52 µM) | 8 µg/mL (≈ 7.52 µM) | >32 µg/mL | > 300 µM | MIC P. aeruginosa GN_043, PmxR ([3]; P. aeruginosa GN_043, PmxR): 4 µg/mL (≈ 3.76 µM)
